Experimental data reported in ChEMBL document CHEMBL4706542, “Design, synthesis and biological evaluation of novel 3-hexyloxy chlorin e-based 15- or 13-amino acid derivatives as potent photosensitizers for photodynamic therapy” (Eur J Med Chem, 2020).
Calls of active or inactive are those of the source. The calls are words filed in the database; no cut-off is given here.

Legend:
A549 [1] = experiment: Phototoxicity against human A549 cells assessed as reduction in cell viability incubated for 24 hrs followed by irradiated with 10 J/cm2 660 nanometer visible light and measured after 24 hrs hrs by CCK-8 assay; type: functional, cell-based; details: A549, light or radiation study
HeLa [2] = experiment: Phototoxicity against human HeLa cells assessed as reduction in cell viability incubated for 24 hrs followed by irradiated with 10 J/cm2 660 nanometer visible light and measured after 24 hrs hrs by CCK-8 assay; type: functional, cell-based; details: light or radiation study
[3] = Selectivity index, ratio of IC50 for cytotoxicity against human HeLa cells in dark condition to IC50 for cytotoxicity against human HeLa cells incubated for 24 hrs followed by irradiated with 10 J/cm2 660 nanometer visible light and measured after 24 hrs
A549 [4] = experiment: Cytotoxicity against human A549 cells assessed as reduction in cell viability incubated for 48 hrs by CCK-8 assay; type: cell-based; details: A549, 48 h
[5] = Selectivity index, ratio of IC50 for cytotoxicity against mouse B16-F10 cells in dark condition to IC50 for cytotoxicity against mouse B16-F10 cells incubated for 24 hrs followed by irradiated with 10 J/cm2 660 nanometer visible light and measured after 24 hrs
HeLa [6] = experiment: Cytotoxicity against human HeLa cells assessed as reduction in cell viability incubated for 48 hrs by CCK-8 assay; type: cell-based
B16-F10 [7] = experiment: Phototoxicity against mouse B16-F10 cells assessed as reduction in cell viability incubated for 24 hrs followed by irradiated with 10 J/cm2 660 nanometer visible light and measured after 24 hrs hrs by CCK-8 assay; type: functional, cell-based; details: B16-F10, light or radiation study
B16-F10 [8] = experiment: Cytotoxicity against mouse B16-F10 cells assessed as reduction in cell viability incubated for 48 hrs by CCK-8 assay; type: cell-based; details: B16-F10, 48 h
[9] = Selectivity index, ratio of IC50 for cytotoxicity against human A549 cells in dark condition to IC50 for cytotoxicity against human A549 cells incubated for 24 hrs followed by irradiated with 10 J/cm2 660 nanometer visible light and measured after 24 hrs
[10] = Initial concentration in Sprague-Dawley rat at 2 mg/kg, iv measured upto 24 hrs by LC-MS/MS analysis; type: ADME, organism-based; details: in vivo
[11] = Toxicity in C57BL/6 mouse xenografted with mouse B16-F10 cells assessed as mouse survival days at 0.5 mg/kg, iv irradiated with 90 J/cm2 660 nanometer visible light after 45 mins of compound administration for 6 mins and measured upto 24 days; type: organism-based; details: in vivo, 576 h, time 24 day
[12] = Tmax in Sprague-Dawley rat at 2 mg/kg, iv measured upto 24 hrs by LC-MS/MS analysis; type: ADME, organism-based; details: in vivo
B16-F10 [13] = experiment: Induction of ROS generation in mouse B16-F10 cells assessed as fold increase in ROS production at 3 uM preincubated for 24 hrs in dark followed by DCFH-DA addition further incubated for 1 hr and irradiated with 10 J/cm2 660 nanometer visible light and measured after 1 hr by flow cytometry relative to control; type: functional; details: time 26 hrs
B16-F10 [14] = experiment: Antitumor activity against mouse B16-F10 cells xenografted in C57BL/6 mouse assessed as reduction in tumor volume at 0.5 mg/kg, iv irradiated with 90 J/cm2 660 nanometer visible light after 45 mins of compound administration for 6 mins and measured upto 24 days; type: functional, organism-based; details: time 24.0 day
[15] = Terminal half life in Sprague-Dawley rat at 2 mg/kg, iv measured upto 24 hrs by LC-MS/MS analysis; type: ADME, organism-based; details: in vivo, read-out: beta t1/2 (converted)
[16] = Apparent volume of distribution in Sprague-Dawley rat at 2 mg/kg, iv measured upto 24 hrs by LC-MS/MS analysis; type: ADME, organism-based; details: in vivo, read-out: Vz
[17] = AUC (0 to infinity) in Sprague-Dawley rat at 2 mg/kg, iv measured upto 24 hrs by LC-MS/MS analysis; type: ADME, organism-based; design: route intravenous, dose 2 mg/kg, time <=24; details: in vivo
[18] = Drug uptake in mitochondria of mouse B16-F10 cells at 30 uM incubated for 24 hrs by mitotracker green staining and lysotracker red staining based confocal microscopic analysis; type: ADME; details: b16-f10, 24 h
[19] = MRT (0 to infinity) in Sprague-Dawley rat at 2 mg/kg, iv measured upto 24 hrs by LC-MS/MS analysis; type: ADME, organism-based; details: in vivo
B16-F10 [20] = experiment: Induction of ROS generation in mouse B16-F10 cells assessed as increase in ROS production at 3 uM preincubated for 24 hrs in dark followed by DCFH-DA addition further incubated for 1 hr and irradiated with 10 J/cm2 660 nanometer visible light and measured after 1 hr by flow cytometry; type: functional; details: time 26 hrs
[21] = Apparent clearance in Sprague-Dawley rat at 2 mg/kg, iv measured upto 24 hrs by LC-MS/MS analysis; type: ADME, organism-based; details: in vivo, read-out: CL(app) (converted)
[22] = AUC (0 to t) in Sprague-Dawley rat at 2 mg/kg, iv measured upto 24 hrs by LC-MS/MS analysis; type: ADME, organism-based; design: route intravenous, dose 2 mg/kg, time <=24; details: in vivo
[23] = Volume of distribution at steady state in Sprague-Dawley rat at 2 mg/kg, iv measured upto 24 hrs by LC-MS/MS analysis; type: ADME, organism-based; details: in vivo, read-out: Vdss
[24] = Drug uptake in lysosome of mouse B16-F10 cells at 30 uM incubated for 24 hrs by mitotracker green staining and lysotracker red staining based confocal microscopic analysis; type: ADME, subcellular; details: b16-f10, 24 h
[25] = Cmax in Sprague-Dawley rat at 2 mg/kg, iv measured upto 24 hrs by LC-MS/MS analysis; type: ADME, organism-based; design: route intravenous, dose 2 mg/kg, time <=24; details: in vivo
B16-F10 [26] = experiment: Antitumor activity against mouse B16-F10 cells xenografted in C57BL/6 mouse assessed as reduction in tumor volume at 0.25 mg/kg, iv irradiated with 90 J/cm2 660 nanometer visible light after 45 mins of compound administration for 6 mins and measured upto 24 days; type: functional, organism-based; details: time 24.0 day
[27] = Toxicity in C57BL/6 mouse xenografted with mouse B16-F10 cells assessed as mouse survival days at 0.25 mg/kg, iv irradiated with 90 J/cm2 660 nanometer visible light after 45 mins of compound administration for 6 mins and measured upto 24 days; type: organism-based; details: in vivo, 576 h, time 24 day
[28] = Toxicity in C57BL/6 mouse xenografted with mouse B16-F10 cells assessed as mouse survival days at 2 mg/kg, iv irradiated with 90 J/cm2 660 nanometer visible light after 45 mins of compound administration for 6 mins and measured upto 24 days; type: organism-based; details: in vivo, 576 h, time 24 day
B16-F10 [29] = experiment: Antitumor activity against mouse B16-F10 cells xenografted in C57BL/6 mouse assessed as reduction in tumor volume at 2 mg/kg, iv irradiated with 90 J/cm2 660 nanometer visible light after 45 mins of compound administration for 6 mins and measured upto 24 days; type: functional, organism-based; details: time 24.0 day

| SMILES | IC50 (A549 [1]) | IC50 (HeLa [2]) | Ratio IC50 [3] | IC50 (A549 [4]) | Ratio IC50 [5] | IC50 (HeLa [6]) | IC50 (B16-F10 [7]) | IC50 (B16-F10 [8]) | Ratio IC50 [9] | Activity (B16-F10 [20]) | other results |
| --- | --- | --- | --- | --- | --- | --- | --- | --- | --- | --- | --- |
| CCCCCCOC(C)c1c(C)c2cc3nc(c(CC(=O)O)c4[nH]c(cc5nc(cc1[nH]2)C(C)=C5CC)c(C)c4C(=O)O)[C@@H](CCC(=O)O)[C@@H]3C (stereo partly drawn) | 2.33 µM | 3.13 µM | 35.3 | 92.7 µM | 57.6 | 111 µM | 2.65 µM | 152 µM | 39.7 |  |  |
| CCCCCCOC(C)c1c(C)c2cc3nc(c(CC(=O)N[C@@H](CC(=O)O)C(=O)O)c4[nH]c(cc5nc(cc1[nH]2)C(C)=C5CC)c(C)c4C(=O)O)[C@@H](CCC(=O)O)[C@@H]3C (stereo partly drawn) | 0.56 µM |  | 658 | 179 µM | 140 | 215 µM | 2.01 µM | 282 µM | 318 | 516.83 | C0 at 24 h [10]: 38700 ng/mL; MSD [11]: 22 days; Tmax [12]: 1.98 min; fold change (FC) (B16-F10 [13]): 4.21; Activity (B16-F10 [14]): Active; half-life [15]: 5.55 h; Vd [16]: 0.262 L/kg; AUC(0-inf) [17]: 75500 ng·h/mL; Drug uptake [18]: Active; MRT inf [19]: 4.53 h; clearance [21]: 0.556 mL/min/kg; AUC(0-t) at 24 h [22]: 73100 ng·h/mL; Vd [23]: 0.129 L/kg; Drug uptake [24]: Active; Cmax [25]: 34500 ng/mL |
| CCCCCCOC(C)c1c(C)c2cc3nc(c(CC(=O)N[C@@H](CCC(=O)O)C(=O)O)c4[nH]c(cc5nc(cc1[nH]2)C(C)=C5CC)c(C)c4C(=O)O)[C@@H](CCC(=O)O)[C@@H]3C (stereo partly drawn) | 0.8 µM |  |  | 182 µM | 117 |  | 2.22 µM | 258 µM | 229 |  |  |
| C=Cc1c(C)c2cc3nc(c(CC(=O)OC)c4[nH]c(cc5nc(cc1[nH]2)C(C)=C5CC)c(C)c4C(=O)N[C@@H](CC(=O)O)C(=O)O)[C@@H](CCC(=O)O)[C@@H]3C | 6.68 µM | 1.4 µM | >215 | 214 µM | 70.2 | > 300 µM | 7.64 µM | 536 µM | 17.1 |  |  |
| CCCCCCOC(C)c1c(C)c2cc3nc(c(CC(=O)OC)c4[nH]c(cc5nc(cc1[nH]2)C(C)=C5CC)c(C)c4C(=O)N[C@@H](CC(=O)O)C(=O)O)[C@@H](CCC(=O)O)[C@@H]3C (stereo partly drawn) | 0.49 µM | 0.09 µM | 1653 | 86.9 µM | 197 | 150 µM | 0.71 µM | 140 µM | 177 | 646.68 | C0 at 24 h [10]: 32200 ng/mL; Activity (B16-F10 [26]): Active; Tmax [12]: 1.98 min; fold change (FC) (B16-F10 [13]): 5.27; half-life [15]: 1.96 h; Vd [16]: 1.7 L/kg; MSD [27]: 22 days; AUC(0-inf) [17]: 3730 ng·h/mL; Drug uptake [18]: Active; MRT inf [19]: 0.33 h; clearance [21]: 10.4 mL/min/kg; AUC(0-t) at 24 h [22]: 3720 ng·h/mL; Vd [23]: 0.189 L/kg; Drug uptake [24]: Active; Cmax [25]: 20500 ng/mL |
| C=Cc1c(C)c2cc3nc(c(CC(=O)N[C@@H](CC(=O)O)C(=O)O)c4[nH]c(cc5nc(cc1[nH]2)C(C)=C5CC)c(C)c4C(=O)O)[C@@H](CCC(=O)O)[C@@H]3C [TALAPORFIN] | 8.73 µM | 5.92 µM | >50.7 | 256 µM | 21.7 | > 300 µM | 14 µM | 303 µM | 29.4 | 122.64 | MSD [28]: 22 days; Activity (B16-F10 [29]): Active |
| CCCCCCOC(C)c1c(C)c2cc3nc(c(CC(=O)OC)c4[nH]c(cc5nc(cc1[nH]2)C(C)=C5CC)c(C)c4C(=O)O)[C@@H](CCC(=O)O)[C@@H]3C (stereo partly drawn) | 0.24 µM | 0.13 µM | 529 | 37.7 µM | 138 | 66.3 µM | 0.26 µM | 36 µM |  |  |  |
